Values quoted from earlier work as cited in patent US6562869B1, “Nutritional supplement for increased energy and stamina” (Juvenon, Inc., priority 1999, dated 2003).
Where two headings read alike, the source gives them in different places. One block for each compound: values may come before it.

Tests used:
[1] = design: dose or concentration left out as unconfirmed; conditions: woman deficient in Q10
[2] = daily up to 200 mg for 6 to 12 months and 100 mg daily for up to 6 years
[3] = tested on: human plasma LDL phospholipids; conditions: healthy Finnish men and women aged 28-77, supplementation
male mice = conditions: life-long supplementation
apoptosis = conditions: through its action in the mitochondria
[4] = tested on: oxidative phosphorylation in skeletal muscles and brains; conditions: patients with mitochondrial cytopathies due to enzyme defects
senescent myocardium = conditions: rats
striatal nerves = conditions: Q10 diet four weeks before and one week after MPTP
[5] = tested on: carnitine-acyl-carnitine exchange across the inner mitochondrial membrane
oxidant production = conditions: carnitine supplementation
[6] = men over 60, 5 days
[7] = older adults 67-80 years, 8 weeks
skeletal muscle = conditions: older individuals aged 40-73, 20 g/day, one week

SMILES: COC1=C(OC)C(=O)C(C/C=C(\C)CC/C=C(\C)CC/C=C(\C)CC/C=C(\C)CC/C=C(\C)CC/C=C(\C)CC/C=C(\C)CC/C=C(\C)CC/C=C(\C)CCC=C(C)C)=C(C)C1=O [Example Q10, Coenzyme Q10]
clinical response [1]: rapidly improved
effects of doxorubicin (cardiac tissue; cardiac tissue): blocks the effects of doxorubicin
adverse effects [2]: No important adverse effects
tolerance of the senescent myocardium to aerobic and ischemic stress (human atrial tissue): improves the tolerance
peroxyl radical trapping capacity [3]: doubled
heart functions (heart functions; old rats): improve heart functions
heart functions (heart functions; young rats): not significantly affect
lifespan (male mice): did not prolong or shorten
programmed cell death, or apoptosis (apoptosis): appears to block
oxidative phosphorylation in skeletal muscles and brains [4]: marked improvement
tolerance of the senescent myocardium to aerobic and ischemic stress (senescent myocardium): improves the tolerance
dopamine, higher than control diet (striatal nerves): 37%
more dense neurons than control diet (striatal nerves): 62%
Q10 levels in kidney, heart and brain (male rats; Q10 supplementation): not affected
lifespan (male rats; life-long supplementation, rats): did not prolong or shorten
plasma and liver Q10 levels (male rats; supplemented rats): 2.6-8.4 times higher

SMILES: C[N+](C)(C)C[C@H](O)CC(=O)[O-] [L-carnitine]
age-related dysfunction of carnitine-acyl-carnitine exchange [5]: slow or reverse

SMILES: O=C(O)CCCC[C@@H]1CCSS1 [R-α-lipoic acid]
ambulatory activity of aged rats (aged rats; aged rats): triple
age-related decline in mitochondrial membrane potential (aged rats; supplementation): restore
age-related decrease in oxygen consumption (aged rats; supplementation): reverse
age-related increase in oxidants (aged rats; supplementation): significantly lower
glutathione and ascorbic acid levels (aged rats; supplementation): to youthful levels

SMILES: CC(=O)O[C@H](CC(=O)[O-])C[N+](C)(C)C [acetyl-L-carnitine]
age-related dysfunction of carnitine-acyl-carnitine exchange [5]: slow or reverse

cell antioxidants (oxidant production): decreased cell antioxidants markedly
oxidant production increase (oxidant production): 30%
SMILES: C[N+](C)(C)CC(O)CC(=O)[O-] (centres unmarked) [carnitine]

SMILES: CN(CC(=O)O)C(=N)N [creatine]
isokinetic performance and body mass [6]: only small increases
isometric strength [6]: no effect
time to exhaustion (phosphocreatine (PCr); both groups combined): increased
resting PCr increase (phosphocreatine (PCr); middle-aged group (50-year-olds), P<0.05): 30%
mean initial PCr resynthesis rate (phosphocreatine (PCr); middle-aged group, P<0.05): increased significantly
resting PCr increase (phosphocreatine (PCr); young group (30-year-olds), P<0.05): 15%
safety (about 1.5 g/day to about 25 g/day for at least a year): safe
adverse effects (athletes, doses up to 75 grams a day for years, aside from weight gain): without known adverse effects
1- and 12-repetitions maxima, effect of creatine supplementation [7]: no beneficial effect
skeletal muscle strength and endurance (skeletal muscle): increased

SMILES: COc1cccc2c1C(=O)c1c(O)c3c(c(O)c1C2=O)C[C@@](O)(C(=O)CO)C[C@@H]3O[C@H]1C[C@H](N)[C@H](O)[C@H](C)O1 [doxorubicin]
mitochondrial oxidant production (cardiac tissue): stimulates
mtDNA deletions in cardiac tissue (cardiac tissue; cardiac tissue): marked increase

SMILES: COc1c(O)c(C)c(C/C=C(\C)CC/C=C(\C)CC/C=C(\C)CC/C=C(\C)CC/C=C(\C)CC/C=C(\C)CC/C=C(\C)CC/C=C(\C)CC/C=C(\C)CCC=C(C)C)c(O)c1OC [ubiquinol-10]
oxidative damage to DNA of human lymphocytes (human lymphocytes): appears to protect
